# Read-outs that look alike come from different tables or passages of the source.
# Tests used:
# Mouse brain Aβ42 = assay: Mouse brain Aβ42; assay type: in vivo; conditions: for Mouse Aβ42: mouse brain; for B/P / Compound concentration in the Mouse Aβ42 study: mouse; for Compound concentration in the Mouse Aβ42 study: matrix not given
# Method: Aβ42 IC50 was determined as described by Gillman, J. E. Starrett Jr., M. F. Parker, et al., “Discovery and evaluation of BMS-708163, a potent, and orally bioavailable gamma-secretase inhibitor”, ACS Medicinal Chemistry Letters, vol. 1., pp. 120-124, 2010. Mouse brain Aβ42 was determined as described by J. H. Toyn, X-A. Lin, M. W. Thompson et al., “Viable mouse gene ablations that robustly alter bran Abeta levels are are”, Biomed. Central Neuroscience, vol. 11, pp. 143, […].
# CYP2B6 = target: T1, CYP2B6 (Homo sapiens, UniProt P20813); assay: Inhibition of recombinant CYP enzymes (rCYP), CYP2B6; assay type: in vitro ADME; conditions: average of two experiments, read-out: rCYP IC50 2B6
# T1 sequence (P20813 1-491): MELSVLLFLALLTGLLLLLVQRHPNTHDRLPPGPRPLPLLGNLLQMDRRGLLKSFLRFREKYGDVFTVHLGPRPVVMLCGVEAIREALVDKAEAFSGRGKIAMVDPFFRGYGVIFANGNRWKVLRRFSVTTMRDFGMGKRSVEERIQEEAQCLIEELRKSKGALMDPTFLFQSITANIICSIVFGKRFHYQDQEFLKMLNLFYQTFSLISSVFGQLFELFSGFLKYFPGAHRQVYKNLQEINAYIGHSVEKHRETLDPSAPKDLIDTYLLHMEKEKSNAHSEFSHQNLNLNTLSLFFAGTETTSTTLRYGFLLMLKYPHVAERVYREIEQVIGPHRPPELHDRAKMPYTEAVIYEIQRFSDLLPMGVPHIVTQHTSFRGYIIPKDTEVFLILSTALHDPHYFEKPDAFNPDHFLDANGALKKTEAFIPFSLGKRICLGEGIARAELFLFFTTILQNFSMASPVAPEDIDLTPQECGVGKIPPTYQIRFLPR
# CYP2C9 = CYP2C9 (Homo sapiens, UniProt P11712); assay: Inhibition of CYP enzymes in human liver microsomes (HLM), CYP2C9; assay type: in vitro ADME
# Chain of CYP2C9 (P11712 whole entry): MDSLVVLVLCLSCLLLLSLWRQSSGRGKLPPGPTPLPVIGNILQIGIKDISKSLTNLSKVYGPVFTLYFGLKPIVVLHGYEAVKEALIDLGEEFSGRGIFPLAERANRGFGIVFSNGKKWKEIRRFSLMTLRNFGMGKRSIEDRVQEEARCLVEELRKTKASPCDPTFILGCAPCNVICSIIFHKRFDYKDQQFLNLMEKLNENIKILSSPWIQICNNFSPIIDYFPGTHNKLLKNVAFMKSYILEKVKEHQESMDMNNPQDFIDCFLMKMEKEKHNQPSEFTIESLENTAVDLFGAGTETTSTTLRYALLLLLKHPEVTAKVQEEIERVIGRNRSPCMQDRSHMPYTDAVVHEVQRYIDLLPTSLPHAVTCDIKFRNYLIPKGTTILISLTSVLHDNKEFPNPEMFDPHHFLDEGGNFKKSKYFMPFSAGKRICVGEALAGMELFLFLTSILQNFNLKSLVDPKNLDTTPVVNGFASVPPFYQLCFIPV
# [1] = system: major human Cytochrome P450 (CYP) enzymes; assay: HLM TDI panel, other CYP enzymes; assay type: in vitro ADME; conditions: CYP enzymes other than 3A4 and 2D6
# CYP1A2 = target: T2, CYP1A2 (Homo sapiens, UniProt P05177); assay: Inhibition of recombinant CYP enzymes (rCYP), CYP1A2
# T2 sequence (P05177 1-516): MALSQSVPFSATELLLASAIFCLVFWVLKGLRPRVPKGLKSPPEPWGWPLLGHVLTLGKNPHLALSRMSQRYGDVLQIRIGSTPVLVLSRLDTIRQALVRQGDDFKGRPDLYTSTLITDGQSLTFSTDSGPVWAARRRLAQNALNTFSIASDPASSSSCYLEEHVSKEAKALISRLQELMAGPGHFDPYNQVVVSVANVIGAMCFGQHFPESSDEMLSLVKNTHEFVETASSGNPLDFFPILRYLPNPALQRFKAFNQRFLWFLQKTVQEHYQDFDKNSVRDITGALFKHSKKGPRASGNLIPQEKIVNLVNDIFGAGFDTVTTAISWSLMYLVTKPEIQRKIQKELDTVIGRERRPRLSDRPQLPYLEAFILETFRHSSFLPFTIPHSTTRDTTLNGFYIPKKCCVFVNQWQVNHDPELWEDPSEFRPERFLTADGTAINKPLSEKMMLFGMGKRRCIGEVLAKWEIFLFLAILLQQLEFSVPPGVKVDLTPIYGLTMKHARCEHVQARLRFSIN
compound,measurement,setting,value
"CNc1nc(Nc2ccc(-n3cnc(C)n3)c(OC(F)F)c2)nc2c1C(C)(C)CC2c1ccc(F)cc1 (single isomer, unassigned) [Enantiomer 1, N2-(3-(difluoromethoxy)-4-(3-methyl-1H-1,2,4-triazol-1-yl)phenyl)-7-(4-fluorophenyl)-N4,5,5-trimethyl-6,7-dihydro-5H-cyclopenta[d]pyrimidine-2,4-diamine]",Mouse Aβ42,Mouse brain Aβ42; 8 mpk,68%
same,Mouse Aβ42,Mouse brain Aβ42; 30 mpk,29%
same,B/P,Mouse brain Aβ42; 8 mpk,0.7
same,Compound concentration in the Mouse Aβ42 study,Mouse brain Aβ42; 8 mpk,391 nM
same,B/P,Mouse brain Aβ42; 30 mpk,1.4
same,Compound concentration in the Mouse Aβ42 study,Mouse brain Aβ42; 30 mpk,1334 nM
same,IC50,CYP2B6,> 20 µM
same,IC50,"CYP2C9; HLM, 0 min preincubation, read-out: IC50-0 min 2C9",12.7 µM
same,IC50 Ratio 2C9,"CYP2C9; HLM, IC50 shift 0 vs 30 min preincubation (TDI ratio)",1.4
same,IC50,"CYP2C9; IC50-30 min 2C9, HLM, 30 min preincubation with NADPH",8.8 µM
same,"HLM TDI panel TDI ratio, others",[1],< 2
same,IC50,CYP1A2,> 20 µM

# — US9833454B2, “Difluoromethoxy compound with low bioactivation potential for the reduction of beta-amyloid production” (BRISTOL-MYERS SQUIBB COMPANY, priority 2014, dated 2017)
